Laboratory results as given in US10596184B2, “Aza-heteroaryl compounds as PI3K-gamma inhibitors” (Incyte Corporation, priority 2015, dated 2020).
Read-outs that look alike come from different tables or passages of the source.

Test system: Phosphorylated Ribosomal Protein S6 (RPS6) in THP-1 cells
Assay: THP-1 RPS6 ELISA Assay
Assay type: cell-based, Human
Details: 2 hours with compound, then 10 nM MCP-1 for 15 minutes, read-out: THP p-RPS6 ELISA IC50
Experimental: To measure the Phosphorylated Ribosomal Protein S6 (RPS6) in cell lysates, THP-1 cells (Human Acute Monocytic Leukemia) are purchased from ATCC (Manassas, Va.) and maintained in RPMI with 10% FBS (Gibco/Life Technologies, Carlsbad, Calif.). For the assay, THP-1 cells are serum starved overnight in RPMI, then plated in RPMI (2×10^5 cells/well in 90 μL) into 96-well flat-bottom tissue culture treated plates (Corning, Corning, N.Y.), in the presence or absence of a concentration range of test compounds. Covered plates are incubated for 2 hours at 37° C., 5% CO2 then treated with or without 10 nM MCP-1 (MYBioSource, San Diego, Calif.) for 15 minutes at 37° C., 5% CO2. Plates are centrifuged at 1600 RPM and supernatants are removed. Cells are lysed in Lysis Buffer (Cell Signaling, Danvers, Mass.) with Protease Inhibitor (Calbiochem/EMD, Germany), PMSF (Sigma, St Louis Mo.), HALTS (Thermo Fisher, Rockford, Ill.) for 30 min on wet ice. Cell lysates are frozen at −80° C. before testing. The lysates are tested in the Human/Mouse/Rat Phospho-RPS6 ELISA (R&D Systems, Inc. Minn, Minn.). The plate is measured using a microplate reader (SpectraMax M5—Molecular Devices, LLC Sunnyvale, Calif.) set to 450 nm with a wavelength correction of 540. […]

| SMILES | IC50 [µM] | IC50 (Homo sapiens) [µM] |
| --- | --- | --- |
| CN1CCN(S(=O)(=O)Nc2cncc(-c3ccc4nc(-c5nc6ccccc6[nH]5)oc4c3)c2)CC1 [Example 31, N-(5-(2-(1H-Benzofdlimidazol-2-yl)benzo[d]oxazol-6-yl)pyridin-3-yl)-4-methylpiperazine-1-sulfonamide] | < 1 | – |
| CCS(=O)(=O)Nc1cncc(-c2ccc3nc(-c4nc(C)c(C)[nH]4)oc3c2)c1 [Example 63, N-(5-(2-(4,5-Dimethyl-1H-imidazol-2-yl)benzo[d]oxazol-6-yl)pyridin-3-yl)ethanesulfonamide bis(trifluoroacetate)] | – | < 5 |
